The values below come from patent publication US5084468A, “DC-88A derivatives” (Kyowa Hakko Kogyo Co., Ltd., priority 1988, dated 1992).

One series relates to HeLa S3 cells. The series can be described thus: Growth inhibition of HeLa S3 cells (neutral red, 72 hours). The following applies: Homo sapiens, read-out: IC50 (drug concentration which inhibited growth of HeLa S3 cells by 50%). Format: cell-based. The protocol: Test on Growth Inhibition of HeLa S3 cells
HeLa S3 cells diluted to 3 x 10^4 cells/ml with MEM medium containing 10% calf fetal serum and 2 mM glutamine were separately distributed by 0.1 ml each in each well of a 96 well microtiter plate.
After culturing at 37° C. overnight in a CO2 -incubator, 0.05 ml each of a test sample appropriately diluted with MEM medium was added to each well.
After culturing the cells for 72 hours in the CO2 -incubator, the culture supernatant was removed. After washing once with phosphate buffered physiological saline (PBS), 0.1 ml each of MEM medium containing 0.02% neutral red was added to each well and then cultured at 37° C. for an hour in the CO2 -incubator to stain the cells. After removing the culture supernatant, the cells were washed once with physiological saline, and the dye was extracted with 0.001N HCl/30% ethanol. Absorbance at […] of the extract was measured with a microplate reader. By comparing absorbance of extract of intact cells with that of the cells treated with a test compound in known concentrations, IC50, i.e. a drug concentration which inhibited growth of the cells by 50% was determined.

The test system of another series is dd strain male mice. The class given is in vivo. To be noted: intraperitoneal, 14 days observation. Here is the method:
Using dd strain male mice weighing 20±1 g, a test compound was intraperitoneally administered. MLD (the minimum lethal dose) was determined by observing the mortality for 14 days after administration.

The subject of the next series is various bacteria. The following applies: cited from earlier work.
The test system of series [1] is lymphocytic leukemia P388. To be noted: lymphocytic leukemia P388, etc.; cited from earlier work.
Setting [2] is: HeLa S3 cells, 72 hours, neutral red staining.

Where two headings read alike, the source gives them in different places. Where only a bound is given, the exact number is not on record here.

Consider `COC(=O)C1(C)NC2=C(C1=O)C13CC1CN(C(=O)COc1ccccc1)C3=CC2=O` (stereo not shown) [Compound 14], for which, in the series on HeLa S3 cells (setting [2]), the IC50 worked out at 6.7 nM.

Take `COC(=O)C1(C)Nc2c(O)cc3c(c2C1=O)C(CBr)CN3C(=O)/C=C/c1ccc(OC)cc1` (stereo not shown) [Compound 38]: the IC50 with HeLa S3 cells (HeLa S3, 72 h) was 0.035 nM. Besides, the “Acute Toxicity (MLD), minimum lethal dose” value (“Acute Toxicity (MLD)” for short) in the series with dd strain male mice stood at 0.063 mg/kg.

Consider `COC(=O)C1(C)Nc2c(O)cc3c(c2C1=O)C(CBr)CN3C(=O)/C=C/c1ccc(C=O)cc1` (stereo not shown) [Compound 42], for which, in the series with dd strain male mice, the “Acute Toxicity (MLD)” value is given as 2.5 mg/kg.

As for `COC(=O)C1(C)Nc2c(O)cc3c(c2C1=O)C(CBr)CN3C(=O)/C=C/c1cccc(OC)c1` (stereo not shown) [Compound 28], in the series on HeLa S3 cells (HeLa S3, 72 h), the IC50 came out at 2.5 nM. The “Acute Toxicity (MLD)” value in the series with dd strain male mice is listed as 0.16 mg/kg.

Consider `COC(=O)C1(C)Nc2c(O)cc3c(c2C1=O)C(CBr)CN3C(=O)c1cc2cc(OC)ccc2[nH]1` (stereo not shown) [Compound 3], for which the “Acute Toxicity (MLD)” value in the series with dd strain male mice amounted to 0.063 mg/kg.

As for `COC(=O)C1(C)Nc2c(O)cc3c(c2C1=O)C(CBr)CN3C(=O)c1cc2cc(OC)c(OCc3ccccc3)c(OC)c2[nH]1` (stereo not shown) [Compound 55], the IC50 in the series with HeLa S3 cells (HeLa S3, 72 h) was determined as 0.52 nM. Moreover, the “Acute Toxicity (MLD)” value with dd strain male mice came to 0.25 mg/kg.

In the case of `COC(=O)C1(C)NC2=C(C1=O)C13CC1CNC3=CC2=O` (stereo not shown) [Compound 18], the IC50 with HeLa S3 cells (setting [2]) worked out at 3900 nM.

Turning to `COC(=O)C1(C)Nc2c(O)cc3c(c2C1=O)C(CBr)CN3C(=O)/C=C/c1ccc(N)cc1` (stereo not shown) [Compound 48], the IC50 with HeLa S3 cells (setting [2]) was found to be 1.2 nM.

In the case of `COC(=O)C1(C)Nc2c(O)cc3c(c2C1=O)C(CBr)CN3C(=O)/C=C/c1ccc(N(C)C)cc1` (stereo not shown) [Compound 40], the IC50 in the series on HeLa S3 cells (HeLa S3, 72 h) worked out at 0.085 nM. Besides, in the series on dd strain male mice, the “Acute Toxicity (MLD)” value was 0.31 mg/kg.

Take `COC(=O)C1(C)Nc2c(O)cc3c(c2C1=O)C(CBr)CN3C(=O)/C=C/c1ccccc1` (stereo not shown) [Compound 7]: the IC50 in the series on HeLa S3 cells (HeLa S3, 72 h) was 5.7 nM. Besides, in the series on dd strain male mice, the “Acute Toxicity (MLD)” value was determined as 1.0 mg/kg.

Turning to `COC(=O)C1(C)Nc2c(O)cc3c(c2C1=O)C(CBr)CN3C(=O)c1cc2ccccc2s1` (stereo not shown) [Compound 26], in the series on dd strain male mice, the “Acute Toxicity (MLD)” value was 2.2 mg/kg.

On to `COC(=O)C1(C)Nc2c(O)cc3c(c2C1=O)C(CBr)CN3C(=O)c1cc2cc(OC)ccc2o1` (stereo not shown) [Compound 34], for which the IC50 in the series on HeLa S3 cells (HeLa S3, 72 h) was determined as 0.05 nM. The “Acute Toxicity (MLD)” value in the series on dd strain male mice amounted to 0.063 mg/kg.

`COC(=O)C1(C)Nc2c(O)cc3c(c2C1=O)C(CBr)CN3C(=O)/C=C/c1ccc(OC)c(OC)c1` (stereo not shown) [Compound 30]: in the series with HeLa S3 cells (HeLa S3, 72 h), the IC50 was determined as 0.034 nM. Also, the “Acute Toxicity (MLD)” value in the series with dd strain male mice turned out to be 0.082 mg/kg.

Regarding `COC(=O)C1(C)NC2=C(C1=O)C13CC1CN(C(=O)/C=C/c1cccc(OC)c1)C3=CC2=O` (stereo not shown) [Compound 27], the IC50 with HeLa S3 cells (setting [2]) was determined as 0.6 nM.

`COC(=O)C1(C)Nc2c(O)cc3c(c2C1=O)C(CBr)CN3C(=O)c1cc2cc(N)ccc2[nH]1` (stereo not shown) [Compound 33]: the IC50 in the series with HeLa S3 cells (setting [2]) stood at 0.88 nM.

Regarding `COC(=O)C1(C)Nc2c(O)cc3c(c2C1=O)C(CBr)CN3C(=O)c1cc2cc(NC(=O)c3cc4ccccc4[nH]3)ccc2[nH]1` (stereo not shown) [Compound 45], in the series with HeLa S3 cells (HeLa S3, 72 h), the IC50 came to 1.1 nM. The “Acute Toxicity (MLD)” value in the series on dd strain male mice is listed as 0.63 mg/kg.

Consider `COC(=O)C1(C)Nc2c(O)cc3c(c2C1=O)C(CBr)CN3C(=O)c1cc2ccccc2o1` (stereo not shown) [Compound 4], for which, in the series with HeLa S3 cells (HeLa S3, 72 h), the IC50 came out at 0.1 nM. In addition, in the series on dd strain male mice, the “Acute Toxicity (MLD)” value is 0.25 mg/kg.

As to `COC(=O)C1(C)Nc2c(O)cc3c(c2C1=O)C(CBr)CN3C(=O)COc1ccccc1` (stereo not shown) [Compound 15], in the series on HeLa S3 cells (HeLa S3, 72 h), the IC50 came to 3.1 nM. In addition, the “Acute Toxicity (MLD)” value in the series with dd strain male mice worked out at 4.0 mg/kg.

Regarding `COC(=O)C1(C)Nc2c(O)cc3c(c2C1=O)C(CBr)CN3C(=O)Nc1ccccc1` (stereo not shown) [Compound 9], the IC50 in the series on HeLa S3 cells (setting [2]) was determined as 2.6 nM.

`COC(=O)C1(C)Nc2c(O)cc3c(c2C1=O)C(CBr)CN3C(=O)CCc1ccc(OC)c(OC)c1` (stereo not shown) [Compound 39]: the “Acute Toxicity (MLD)” value in the series on dd strain male mice is 1.3 mg/kg.

On to `COC(=O)C1(C)Nc2c(O)cc3c(c2C1=O)C(CBr)CN3C(=O)CNc1ccccc1` (stereo not shown) [Compound 19], for which the “Acute Toxicity (MLD)” value in the series with dd strain male mice is 2.5 mg/kg.

`COC(=O)C1(C)Nc2c(O)cc3c(c2C1=O)C(CBr)CN3C(=O)/C=C/c1cccc(OC(C)=O)c1` (stereo not shown) [Compound 35]: the IC50 with HeLa S3 cells (HeLa S3, 72 h) is 0.94 nM. For the same compound, the “Acute Toxicity (MLD)” value with dd strain male mice stood at 0.25 mg/kg.

In the case of `COC(=O)C1(C)Nc2c(O)cc3c(c2C1=O)C(CBr)CN3C(=O)c1cc2cc(OC)c(OC)cc2[nH]1` (stereo not shown) [Compound 24], in the series on HeLa S3 cells (HeLa S3, 72 h), the IC50 is 0.024 nM. The “Acute Toxicity (MLD)” value with dd strain male mice came to 0.25 mg/kg.

`COC(=O)C1(C)Nc2c(O)cc3c(c2C1=O)C(CBr)CN3C(=O)c1cc2cc(NC(=O)c3cc4ccccc4o3)ccc2[nH]1` (stereo not shown) [Compound 46]: the IC50 with HeLa S3 cells (HeLa S3, 72 h) amounted to 0.4 nM. Besides, in the series with dd strain male mice, the “Acute Toxicity (MLD)” value was determined as 0.63 mg/kg.

Regarding `COC(=O)C1(C)NC2=C(C1=O)C13CC1CN(C(=O)c1cc4ccccc4[nH]1)C3=CC2=O` (stereo not shown) [Compound 1], the IC50 with HeLa S3 cells (setting [2]) is 1.1 nM.

Regarding `COC(=O)C1(C)Nc2c(O)cc3c(c2C1=O)C(CBr)CN3C(=O)/C=C/c1ccc(NC(C)=O)cc1` (stereo not shown) [Compound 37], in the series on HeLa S3 cells (setting [2]), the IC50 was 0.74 nM.

Regarding `COC(=O)C1(C)NC2=C(C1=O)C13CC1CN(C(=O)c1cc4cc(OC)c(OC)cc4[nH]1)C3=CC2=O` (stereo not shown) [Compound 23], the IC50 in the series with HeLa S3 cells (setting [2]) is less than 0.024 nM.

With `COC(=O)C1(C)Nc2c(O)cc3c(c2C1=O)C(CBr)CN3C(=O)C1Cc2ccccc2N1` (stereo not shown) [Compound 31], the IC50 with HeLa S3 cells (setting [2]) came to 81 nM. Also, the “Acute Toxicity (MLD)” value in the series with dd strain male mice was 20 mg/kg.

As for `COC(=O)C1(C)NC2=C(C1=O)C13CC1CN(C(=O)/C=C/c1ccccc1)C3=CC2=O` (stereo not shown) [Compound 6], the IC50 in the series on HeLa S3 cells (setting [2]) was 2.3 nM.

For the compound `COC(=O)C1(C)NC2=C(C1=O)C13CC1CN(C(=O)c1cc4cc(NC(=O)OC(C)(C)C)ccc4[nH]1)C3=CC2=O` (stereo not shown) [Compound 32], in the series with dd strain male mice, the “Acute Toxicity (MLD)” value is listed as 0.25 mg/kg.

As for `COC(=O)C1(C)Nc2c(O)cc3c(c2C1=O)C(CBr)CN3C(C)=O` (stereo not shown) [Compound 22], the “Acute Toxicity (MLD)” value with dd strain male mice turned out to be 13 mg/kg.

As for `COC(=O)C1(C)NC2=C(C1=O)C13CC1CN(C(=O)Nc1ccccc1)C3=CC2=O` (stereo not shown) [Compound 8], the IC50 with HeLa S3 cells (setting [2]) was 3.2 nM.

Take `COC(=O)C1(C)NC2=C(C1=O)C13CC1CN(C(=O)c1cc4ccccc4s1)C3=CC2=O` (stereo not shown) [Compound 25]: the IC50 in the series with HeLa S3 cells (setting [2]) worked out at 7.6 nM.

For `COC(=O)C1(C)Nc2c(O)cc3c(c2C1=O)C(CBr)CN3C(=O)/C=C/c1ccc([N+](=O)[O-])cc1` (stereo not shown) [Compound 41], the “Acute Toxicity (MLD)” value with dd strain male mice is given as 1.3 mg/kg.

Turning to `COC(=O)C1(C)Nc2c(O)cc3c(c2C1=O)C(CBr)CN3C(=O)c1cc2ccccc2[nH]1` (stereo not shown) [Compound 2], the IC50 with HeLa S3 cells (HeLa S3, 72 h) was found to be 0.054 nM. For the same compound, in the series on dd strain male mice, the “Acute Toxicity (MLD)” value was determined as 0.25 mg/kg.

With `COC(=O)C1(C)Nc2c(O)cc3c(c2C1=O)C(CBr)CN3C(=O)/C=C/c1ccc(NC(=O)OCc2ccccc2)cc1` (stereo not shown) [Compound 36], in the series with dd strain male mice, the “Acute Toxicity (MLD)” value was 1.3 mg/kg.

On to `COC(=O)C1(C)Nc2c(O)cc3c(c2C1=O)C(CI)CN3C(=O)c1cc2cc(OC)c(OC)c(OC)c2[nH]1` (stereo not shown) [Compound 5], for which the IC50 in the series on HeLa S3 cells (setting [2]) turned out to be 0.011 nM.

Consider `COC(=O)C1(C)NC2=C(C1=O)C13CC1CN(C(=O)c1cc4cc(OC)c(OC)c(OC)c4[nH]1)C3=CC2=O` (stereo not shown) [DC-88A], for which the antibacterial activity entry in the series on various bacteria is recorded as “antibacterial activity against various bacteria”. For the same compound, in series [1], the “antitumor activity against lymphocytic leukemia P388” value is on record as “antitumor activity against lymphocytic leukemia P388”.

On to `COC(=O)C1(C)NC2=C(C1=O)C13CC1CN(C(=O)/C=C/c1ccc(OC)c(OC)c1)C3=CC2=O` (stereo not shown) [Compound 29], for which the IC50 in the series on HeLa S3 cells (HeLa S3, 72 h) was less than 0.024 nM.
